From PMC13242511, “Disrupting Notch signalling by a small molecule inhibiting dihydroorotate dehydrogenase activity” (Scientific Reports, 2026)
Values joined by “and” are separate entries in the source; they are usually repeats but may differ in a detail not shown here. Equal values may be shown once.

Experiments:
Assay type in all cases: cell-based
γ-secretase complex = γ-secretase complex (Homo sapiens, UniProt P49768); assay: APP-C99 counter assay (GSI reporter assay); parameters: AUC APP: scale not given here; conditions: for Hill-slope: 14p APP assay DR; for remaining activity at 10 µM / remaining activity at 25 µM / remaining activity at […]: APP-C99 counter assay, read-out: 3p-DR in % of DMSO counter; for remaining activity at […]: 1,25µM; for AUC APP: area under the 14-point dose-response curve, replicates averaged
How it was run: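 Cells transfected with APP-C99 firefly luciferase reporter plus renilla normalization plasmid, seeded 24 h later onto compound plates and cultured 24 h. Dual luciferase read in triplicate per concentration; IC50 from variable-slope log(inhibitor) fit, with AUC also calculated from dose–response curves.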

C2C12 cells = assay: C2C12 myogenic assay; parameters: key to myogenic assay: + indicates that the compound had an effect; -: − indicates that there was no significant effect in the respective assay; key to mean fusion index: ratio of nuclei fused per area to total nuclei in field; conditions: for MYH4 (MFI) / fusion index, % of DMSO control: Fig. 5, equals mean of the two '% of control' values of the 4th table; for myogenic assay: summary Fig. 8E
Excerpt: To corroborate their status as Notch inhibitors, we tested four of the five compounds (A, C, D, E) in an orthogonal assay for Notch function. Notch signalling plays an important role in myogenic differentiation, and blocking Notch signalling promotes myogenic differentiation in the myoblast cell line C2C12[27] (Fig. 5A). C2C12 cells can be maintained as myoblasts but upon serum starvation spontaneously differentiate to MYH4-positive multinucleated myotubes, a process which is accelerated by Notch blockade.
8000 C2C12 cells were seeded on gelatin (0.1%, Sigma-Aldrich, cat #G2500) coated cover slides (BD Bioscience) and cultivated in proliferation medium. For gelatin coating, 8-well cover slide chambers (BD Bioscience) were incubated for 60 min with 0.1% gelatin in PBS. The remaining liquid was aspirated, and gelatin was allowed to dry for 24 h. Cover slides were stored at 4 °C until use. Upon reaching 85% confluence cell culture medium was exchanged to differentiation medium to enhance differentiation into myocytes/myotubes. Cells were then treated with 10 µM of the respective compound for five days and DMSO-treated cells served as a base-line control. Next, cells were washed with 1 × cold PBS (ThermoFisher, cat #10010023) fixed with 4% paraformaldehyde (PFA, Sigma-Aldrich, cat #1.00496) in PBS for 10 min at room temperature and washed again with 1 × PBS. Fixed cells were either stored at 4 °C in PBS or directly processed for immunocytochemistry staining: For immunocytochemistry, cells were permeabilized for 10 min in 0.1% TritonX-100 / PBS, then washed in PBS and unspecific bindings sites were blocked in protein free blocking solution (DAKO, cat # × 0909) for 30 min at room temperature, followed by two times washing in PBS. Then, cells were incubated with primary antibody MYH4 (ThermoFisher) in blocking solution and 0.1% TritonX-100 in PBS for 1 h at room temperature. Next, cells were washed three times in PBS and incubated with secondary Alexa fluorophore coupled antibody (Invitrogen) in a 1:400 dilution. Labeling of F-actin filaments was conducted by phalloidin-TRITC (Sigma-Aldrich, cat # P1951) in a 1:2500 dilution. Cells were washed three times in PBS and incubated with DAPI (BD Bioscience cat # 564907) for 5 min at room temperature to stain DNA/nuclei. Finally, slides were fixed with mounting medium (ProLong Antifade mounting medium, ThermoFisher, cat #P36934). Bright field and immunocytochemistry images were taken using the SP8 LSM (Leica) at different magnifications and images were recorded as Z-stacks. Images were processed using the FijI (ImageJ) software. As controls, wells with and without differentiation medium were also stained to set the baseline and contrast the differences and stainings of cells with only secondary antibodies were used as negative controls to assess cross-reactivity and background staining. For calculating the MYH4 median fluorescence intensity (MFI) images have been converted into 8-bit greyscale and a standard color threshold was applied (ImageJ). Next, MFI signals per area were measured using ImageJ and divided by the median background intensity (MBI). The nuclei fusion index was calculated as the ratio of nuclei fused per area divided by the total number of nuclei in the field. A minimum of three images has been recorded for the calculations, and two replicate experiments were conducted. For calculations of MFI and fusion index see Supplemental Table 5.

NOTCH1 = assay: Western blot analysis of S3-cleaved NOTCH1 (a-N1-V1744); conditions: Western blot quantification, Supplemental Figure 4K; for V1744, DMSO as reference: DMSO = 1
Procedure: Cells were washed in ice-cold PBS and incubated for 30 min on ice with RIPA cell lysis buffer (Thermofisher, cat #89900) containing protease and phosphatase inhibitors (Thermofisher, cat #78442), scraped off and homogenized using a 25G syringe, and subsequently centrifugated for 10 min at > 13,000xg. […] After electrophoresis, gels were placed directly onto a TransBlot Turbo PVDF or nitrocellulose membrane (Bio-rad, cat #1704157 and cat #1704159) and transferred using the “HIGH MW” protocol (Bio-Rad). Subsequently, membranes were blocked for 1 h at room temperature using Clear Milk Blocking Buffer (ThermoFisher, cat #37587) supplemented with 0.1% Tween20 (Sigma-Aldrich, cat #P1379). Detection of antibody binding was performed by using Clarity Western ECL-Substrate (Bio-rad, cat #1705060S). Beta-Actin protein signals were used as a loading control. Western blot membranes were in some experiments stripped after development (indicated in the figure in each respective case) by washing the membranes twice for 10 min in PBS, followed by incubation in membranes in western blot stripping buffer (ThermoFisher, cat #21059) for 30 min at room temperature and gentle agitation. Stripped membranes were washed twice with PBS and incubated for 30 min in blocking buffer before incubation with primary antibody. A list of all antibodies used in this study is provided in Supplemental Table 6. Uncropped western blot images are provided in […]. Protein expression levels of western blot bands were quantified using Fiji (V.2.16) with beta-Actin signals for normalisation (Supplemental Table 8). Uncropped western blot images are provided in Supplemental Fig. 10.

[1] = overview in comparison to compound C, Supplemental Fig. 9

SMILES	remaining activity at 10 µM (γ-secretase complex; 24 h) [%]	remaining activity at 25 µM (γ-secretase complex; 24 h) [%]	remaining activity at […] (γ-secretase complex; 24 h) [%]	AUC APP (γ-secretase complex)	expression of the differentiation marker MYH4 (C2C12 cells; 10 µM, five days)	MYH4 (MFI) (C2C12 cells; 10 µM, five days)	fusion index, % of DMSO control (C2C12 cells; 10 µM, five days)	myogenic assay (C2C12 cells)	V1744 (activated N1) band intensity (NOTCH1)	V1744 normalised to beta-actin signals (NOTCH1)	V1744, DMSO as reference (NOTCH1)	further results
CCc1c(C(=O)N(C)Cc2cnn(C(C)C)c2)[nH]c2ccccc12 [compound A]	71.4	62.2	75.7	658.8	elevated expression	476.6	210.8	+	20296.9	1.0	0.806	effect in the APP assay (γ-secretase complex; 14-point dose-response, Supplemental Fig. 4J): showed an inhibitory effect at high concentrations; Hill-slope (γ-secretase complex; bottom constrained to Emax of positive control CB-103): -1.6; Hill-slope (γ-secretase complex; bottom constrained to Emax of positive control LY-411575): -1.6; activity at 10 µM (γ-secretase complex; 24 h, 10 µM, sheet conf vs counter 10 µM, read-out: Counter screen (Hek APP-C99)): 71.3%; mean MFI in % of control (C2C12 cells; 10 µM, five days, DMSO ctrl = 100, experiments #1 and #2): 469.2 % of control; mean MFI (C2C12 cells; 10 µM, five days, MYH4, experiments #1 and #2): 7.4 and 5.9; ratio MFI/MBI (C2C12 cells; 10 µM, five days, MYH4, single images, experiments #1 and #2): 6.1 and 6.4 and 7.3 and 7.5 and 5.2; mean fusion index (C2C12 cells; 10 µM, five days, experiments #1 and #2): 4.1 and 7.3; ratio nuclei % (C2C12 cells; 10 µM, five days, single images, experiments #1 and #2): 2.9% and 4.4% and 7.7% and 8.1% and 6.0% and 5.0%; activity at 10 µM (C2C12 cells; Mus musculus, C2C12, 120 h, 10 µM, five days, DMSO ctrl = 100, experiments #1 and #2, read-out: mean MFI in % of control): 484%
NC(=O)c1c(NC(=O)NCc2cccnc2)sc2c1CCC2 [compound D]	119	134	78	449.6	did not produce elevated MYH4 levels	108.7	153.2	-	30696.5	1.2	0.9101	Hill-slope (γ-secretase complex; bottom constrained to Emax of positive control LY-411575, listed as CBK307578): 0.0595
CC(C)(C(=O)NCC(F)(F)C(F)(F)F)C(=O)N[C@@H]1C(=O)Nc2ccccc2-c2ccccc21 [RO4929097, reference compound]				527.4	elevated expression				4624.07	0.211	0.1638	Hill-Slope 9p APP counter assay averaged (γ-secretase complex; 9p dose response): -1.5; AUC 9p APP-counter assay (γ-secretase complex; 9p dose response, AUCs averaged when replicates available): 2.88E+02; AUC. 14p APP-counter assay (γ-secretase complex; 14p dose response, AUCs averaged when replicates available): 5.27E+02; APP assay (γ-secretase complex; [1]): higher potency; mean MFI in % of control (C2C12 cells; 10 µM, five days, DMSO ctrl = 100, experiments #1 and #2, listed as GSI): 296.5 % of control and 351.1 % of control; mean MFI (C2C12 cells; 10 µM, five days, MYH4, experiments #1 and #2, listed as GSI): 5.5 and 3.6; mean fusion index (C2C12 cells; 10 µM, five days, experiments #1 and #2, listed as GSI): 6.7 and 4.2; ratio nuclei % (C2C12 cells; 10 µM, five days, single images, experiments #1 and #2, listed as GSI): 6.3% and 6.4% and 7.6% and 4.9% and 3.4%; myogenic diff. (C2C12 cells; [1]): yes
